# Tested on: NCI-H1876 complex spheroid growth, % test/control
# Assay: Anticancer human tumor NCI-H1876 cell line growth inhibition [Asc];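 also: compound exposure lasted 7 days starting three days after seeding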;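 as to viability, T/C: 100% = DMSO vehicle control wells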
# Settings: for IC50: curve of first compound; for viability, T/C: stronger effect = lower value
# How it was run: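 Tumor cells were grown as complex spheroids with human endothelial cells (HUVEC) and human mesenchymal stem cells as stroma. Agents were tested alone and in combination, in half-log steps down from the clinical Cmax, or from 10 microM where Cmax was unknown.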
# [1] = second compound 0.0316 µM, first compound 0.00316 µM
# [2] = second compound 0.0316 µM, first compound 0.01 µM
# [3] = second compound 0.0316 µM, first compound 0.0316 µM
# [4] = second compound 0.0316 µM, first compound 0.1 µM
# [5] = second compound 0.1 µM, first compound 0.00316 µM
# [6] = second compound 0.1 µM, first compound 0.01 µM
# [7] = second compound 0.1 µM, first compound 0.0316 µM
# [8] = second compound 0.1 µM, first compound 0.1 µM
# [9] = second compound 0.316 µM, first compound 0.00316 µM
# [10] = second compound 0.316 µM, first compound 0.01 µM
# [11] = second compound 0.316 µM, first compound 0.0316 µM
# [12] = second compound 0.316 µM, first compound 0.1 µM
# [13] = second compound 1 µM, first compound 0.00316 µM
# [14] = second compound 1 µM, first compound 0.01 µM
# [15] = second compound 1 µM, first compound 0.0316 µM
# [16] = second compound 1 µM, first compound 0.1 µM
# [17] = second compound 3.16 µM, first compound 0.00316 µM
# [18] = second compound 3.16 µM, first compound 0.01 µM
# [19] = second compound 3.16 µM, first compound 0.0316 µM
# [20] = second compound 3.16 µM, first compound 0.1 µM
# [21] = second compound 10 µM, first compound 0.00316 µM
# [22] = second compound 10 µM, first compound 0.01 µM
# [23] = second compound 10 µM, first compound 0.0316 µM
# [24] = second compound 10 µM, first compound 0.1 µM
# [25] = second compound 0.0316 µM, first compound 0.316 µM
# [26] = second compound 0.0316 µM, first compound 1 µM
# [27] = second compound 0.1 µM, first compound 0.316 µM
# [28] = second compound 0.1 µM, first compound 1 µM
# [29] = second compound 0.316 µM, first compound 0.316 µM
# [30] = second compound 0.316 µM, first compound 1 µM
# [31] = second compound 1 µM, first compound 0.316 µM
# [32] = second compound 1 µM, first compound 1 µM
# [33] = second compound 3.16 µM, first compound 0.316 µM
# [34] = second compound 3.16 µM, first compound 1 µM
# [35] = second compound 10 µM, first compound 0.316 µM
# [36] = second compound 10 µM, first compound 1 µM
compound,measurement,setting,value
NC1CCC(NC2CC2c2ccccc2)CC1 (stereo unspecified) + Cc1c(S(C)(=O)=O)c(-c2cc(F)cc(N3CCN(c4ccc(NS(=O)(=O)c5ccc(NC(CCN6CCC(C(=O)OCCCP(=O)(O)O)CC6)CSc6ccccc6)c(S(=O)(=O)C(F)(F)F)c5)cc4)CC3)c2)c(-c2ccc(Cl)cc2)n1C(C)C,IC50,second compound 0.0316 µM,> 0.1 µM
same,IC50,second compound 0.1 µM,> 0.1 µM
same,IC50,second compound 0.316 µM,> 0.1 µM
same,IC50,second compound 1 µM,> 0.1 µM
same,IC50,second compound 3.16 µM,> 0.1 µM
same,IC50,second compound 10 µM,> 0.1 µM
same,"viability, T/C","second compound 0.0316 µM, first compound 0.000316 µM",111%
same,"viability, T/C","second compound 0.0316 µM, first compound 0.001 µM",101%
same,"viability, T/C",[1],99.3%
same,"viability, T/C",[2],106%
same,"viability, T/C",[3],109%
same,"viability, T/C",[4],119%
same,"viability, T/C","second compound 0.1 µM, first compound 0.000316 µM",114%
same,"viability, T/C","second compound 0.1 µM, first compound 0.001 µM",103%
same,"viability, T/C",[5],105%
same,"viability, T/C",[6],110%
same,"viability, T/C",[7],103%
same,"viability, T/C",[8],112%
same,"viability, T/C","second compound 0.316 µM, first compound 0.000316 µM",99.6%
same,"viability, T/C","second compound 0.316 µM, first compound 0.001 µM",103%
same,"viability, T/C",[9],113%
same,"viability, T/C",[10],101%
same,"viability, T/C",[11],120%
same,"viability, T/C",[12],106%
same,"viability, T/C","second compound 1 µM, first compound 0.000316 µM",97.5%
same,"viability, T/C","second compound 1 µM, first compound 0.001 µM",97.7%
same,"viability, T/C",[13],93.1%
same,"viability, T/C",[14],93.9%
same,"viability, T/C",[15],109%
same,"viability, T/C",[16],114%
same,"viability, T/C","second compound 3.16 µM, first compound 0.000316 µM",103%
same,"viability, T/C","second compound 3.16 µM, first compound 0.001 µM",112%
same,"viability, T/C",[17],98.2%
same,"viability, T/C",[18],104%
same,"viability, T/C",[19],110%
same,"viability, T/C",[20],98.9%
same,"viability, T/C","second compound 10 µM, first compound 0.000316 µM",118%
same,"viability, T/C","second compound 10 µM, first compound 0.001 µM",105%
same,"viability, T/C",[21],101%
same,"viability, T/C",[22],103%
same,"viability, T/C",[23],111%
same,"viability, T/C",[24],108%
O=C(c1ccc(F)c(F)c1Nc1ccc(I)cc1F)N1CC(O)([C@@H]2CCCCN2)C1 + Cc1c(S(C)(=O)=O)c(-c2cc(F)cc(N3CCN(c4ccc(NS(=O)(=O)c5ccc(NC(CCN6CCC(C(=O)OCCCP(=O)(O)O)CC6)CSc6ccccc6)c(S(=O)(=O)C(F)(F)F)c5)cc4)CC3)c2)c(-c2ccc(Cl)cc2)n1C(C)C,IC50,second compound 0.0316 µM,> 1 µM
same,IC50,second compound 0.1 µM,> 1 µM
same,IC50,second compound 0.316 µM,> 1 µM
same,IC50,second compound 1 µM,> 1 µM
same,IC50,second compound 3.16 µM,> 1 µM
same,IC50,second compound 10 µM,> 1 µM
same,"viability, T/C",[1],102%
same,"viability, T/C",[2],98.9%
same,"viability, T/C",[3],108%
same,"viability, T/C",[4],92.3%
same,"viability, T/C",[25],85.3%
same,"viability, T/C",[26],71.7%
same,"viability, T/C",[5],95.4%
same,"viability, T/C",[6],97.5%
same,"viability, T/C",[7],94.6%
same,"viability, T/C",[8],97.6%
same,"viability, T/C",[27],86.9%
same,"viability, T/C",[28],81%
same,"viability, T/C",[9],96.5%
same,"viability, T/C",[10],102%
same,"viability, T/C",[11],89.5%
same,"viability, T/C",[12],102%
same,"viability, T/C",[29],84.2%
same,"viability, T/C",[30],78.4%
same,"viability, T/C",[13],101%
same,"viability, T/C",[14],102%
same,"viability, T/C",[15],93.9%
same,"viability, T/C",[16],92.1%
same,"viability, T/C",[31],92%
same,"viability, T/C",[32],77.1%
same,"viability, T/C",[17],109%
same,"viability, T/C",[18],98.6%
same,"viability, T/C",[19],91%
same,"viability, T/C",[20],85.8%
same,"viability, T/C",[33],94.2%
same,"viability, T/C",[34],74.9%
same,"viability, T/C",[21],103%
same,"viability, T/C",[22],92.2%
same,"viability, T/C",[23],92.5%
same,"viability, T/C",[24],102%
same,"viability, T/C",[35],93.5%
same,"viability, T/C",[36],79.5%
COc1c(OCCCN2CCOCC2)ccc2c3n(c(=NC(=O)c4cnc(N)nc4)nc12)CCN3 + Cc1c(S(C)(=O)=O)c(-c2cc(F)cc(N3CCN(c4ccc(NS(=O)(=O)c5ccc(NC(CCN6CCC(C(=O)OCCCP(=O)(O)O)CC6)CSc6ccccc6)c(S(=O)(=O)C(F)(F)F)c5)cc4)CC3)c2)c(-c2ccc(Cl)cc2)n1C(C)C,IC50,second compound 0.0316 µM,0.243 µM
same,IC50,second compound 0.1 µM,0.225 µM
same,IC50,second compound 0.316 µM,0.207 µM
same,IC50,second compound 1 µM,0.149 µM
same,IC50,second compound 3.16 µM,0.118 µM
same,IC50,second compound 10 µM,0.102 µM
same,"viability, T/C",[1],94.3%
same,"viability, T/C",[2],88%
same,"viability, T/C",[3],91.3%
same,"viability, T/C",[4],62.4%
same,"viability, T/C",[25],49.3%
same,"viability, T/C",[26],35.9%
same,"viability, T/C",[5],93.2%
same,"viability, T/C",[6],88%
same,"viability, T/C",[7],88.2%
same,"viability, T/C",[8],63.2%
same,"viability, T/C",[27],45.4%
same,"viability, T/C",[28],29.6%
same,"viability, T/C",[9],94.3%
same,"viability, T/C",[10],94.4%
same,"viability, T/C",[11],87.6%
same,"viability, T/C",[12],62.2%
same,"viability, T/C",[29],43.2%
same,"viability, T/C",[30],20.1%
same,"viability, T/C",[13],98.5%
same,"viability, T/C",[14],94.7%
same,"viability, T/C",[15],82.5%
same,"viability, T/C",[16],57.3%
same,"viability, T/C",[31],35%
same,"viability, T/C",[32],18.7%
same,"viability, T/C",[17],101%
same,"viability, T/C",[18],84.7%
same,"viability, T/C",[19],77.9%
same,"viability, T/C",[20],52.8%
same,"viability, T/C",[33],29.2%
same,"viability, T/C",[34],10.7%
same,"viability, T/C",[21],96.7%
same,"viability, T/C",[22],90.3%
same,"viability, T/C",[23],74.5%
same,"viability, T/C",[24],48.4%
same,"viability, T/C",[35],28.3%
same,"viability, T/C",[36],8.91%

# — PubChem BioAssay AID1963441 (Molecular Pharmacology Branch, DTP, NCI, 2024)
